Laboratory results reported in patent US20230248744A1, “25-HYDROXYVITAMIN D2 AND/OR D3 FOR USE IN OBESITY” (CARBOGEN AMCIS B.V., priority 2020, published 2023).

Experiment: Calculated total uptake into blood and deposition of vitamin D3 from the blood level curves (FIG. 6)
Format: in vivo, human
Settings: for amount of vitamin D3 deposited in the first 24 hours: assuming a total blood volume of 5 liters
Description: FIG. 6: The upper curves show the calculated total amounts of vitamin D3 arriving in blood of malabsorptive, obese and normal individuals. The lower curves show the experimental blood levels of vitamin D3 expressed in ng/mL of blood. The upper curves are as well expressed in ng/mL of blood, disregarding differing total blood volumes for malabsorptive, obese and normal individuals.
In order to further analyze the results, the shape of the concentration/time-curves describing the observed average blood levels of vitamin D3 was used to approximately calculate its total uptake into blood after dosage. The calculation was based on the assumptions compiled in the comments regarding FIG. 6. Metabolism in terms of the appearance of 25(OH)D3 which was experimentally determined in parallel to vitamin D3 can thereby be regarded as part of the immediately disappearing percentage of the total uptake into blood, and it is reasonable to assume that there is no other relevant metabolic step in this early phase, which has to be taken into account.
FIG. 6 presents the accordingly calculated total uptake and the experimentally determined levels of vitamin D3 for the first 24 hours after dosing. The difference between the upper (calculated) and the lower (experimental) curve represents the sum of metabolism and deposition. Herein the assumption is made that the elimination can be disregarded, because as known to the skilled person there is essentially no elimination of non-metabolized vitamin D3 from blood into urine. Metabolism in the first 24 hours results in all three cases (viz., malabsorptive, obese, and normal subjects) in the consumption of about 2 to 5 ng/mL, viz. a small part of the mentioned calculated difference (compare FIG. 7). No correction relating to said consumption seems necessary for determining the metabolite's observed concentration because the metabolite is rapidly forming a DBP-complex, characterized by a long half-life. However, the fact that the 25(OH)D3 formed must be determined as difference to baseline adds an element of uncertainty and the assumption that no more than a minor part of the 25(OH)D3 formed in this phase may not be absolutely to the point.
wherein the same correction regarding metabolism, as described above, was used for the obese and for the normal individuals, viz. 1.5 ng/mL at 15 hours and 3.5 ng/mL at 24 hours, respectively. These values come from FIG. 7B and are charged with a significant uncertainty—due to the significant experimental error in the early part of the respective curves. But they make sense, if inspecting the subsequent increase which can be more reliably determined. […]
The following relates to the coverage of the surface of adipocytes with vitamin D3. […] A homogenous cell diameter of 50 μm was determined to deliver about the same overall cell-surface one calculates by working with the rather wide experimental distribution of cell sizes as reported by Karin G. Stenkula et al. Thereby it was in the sense of a model consideration assumed that cubes containing large lipid droplet cubes can be used to describe the cells' shape (in other words: cubes of an edge-length of 50 μm enclosing cubes of about the same size were determined to represent a reasonable model for the description of the combined surface of the variable size cells' with their lipid droplets). […]

## C=C1CC[C@H](O)C/C1=C/C=C1\CCC[C@]2(C)[C@@H]([C@H](C)CCCC(C)C)CC[C@@H]12 [vitamin D3, cholecalciferol]
After 2½ days, from difference to Cmax and differing blood volumes
  R, deposition in fatty tissues in high BMI versus low BMI subjects: 1.05 times
Healthy obese subjects
  amount of vitamin D3 deposited in the first 24 hours: 92.5 µg
Low BMI group, after 2½ days
  deposition of vitamin D3: ~7400 I.U.
Normal subjects
  amount of vitamin D3 deposited in the first 24 hours: 62.5 µg
Time point of 15 hours
  deposition in healthy obese versus normal low BMI subjects: 1.5 times
